Assay results published in US9598463B2, “Mucin hypersecretion inhibitors and methods of use” (BIOMARCK PHARMACEUTICALS, LTD., priority 2005, dated 2017).
Marks after values point to notes of the source that are not given here.

Columns and labels:
[1] = Qualitative solubility of test peptides in 0.5 N saline; format: physicochemical; settings: pH 6.5, 20° C. (table title)
Outline: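 Weighed peptide (1 to 5 mg) titrated with 25 μL aliquots of 0.5 N saline, pH 6.5, at 25° C until dissolution judged visually. Solubility calculated from volume needed; complete dissolution in first aliquot reported as greater than, non-dissolution as less than, the calculated value.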

[2] = Stability of test peptides in human BALF (LC/MS/MS, first order half-life); format: in vitro ADME; settings: cerebrospinal or other body fluid, human BALF from COPD patients, 1st experiment, read-out: BALF t1/2 (1st exp.) (converted)
Protocol: (§1) Various test peptides in human plasma, human BALF, and CF patient mucus were analyzed to determine the susceptability of the test peptide to proteolysis in the biological fluids. […] The samples were analyzed either on the same day as received or stored at −20° C. and analyzed within the following two days.
Samples of BALF collected from COPD patients were obtained and frozen. The BALF samples were thawed, mixed together and centrifuged at 10,000×g for 10 min at 4-8° C. The supernatant (0.9 mL) was spiked with 0.1 mL of 0.5 mg/mL solution of the peptide in 75 mM sodium acetate buffer at pH 7.0 and processed and analyzed as described above.
(§2) All samples were analyzed using LC/MS/MS (MDS/SCIEX, API 4000 Model). Chromatography was performed using a Phenomenex Luna C18 column, while mass spectrometry was performed using positive ion electrospray ionization.
(§3) Calibration standards were analyzed by LCMS at concentrations of 0.100 μg/mL, 1.00 μg/mL, 10.0 μg/mL, and 100 μg/mL for each peptide, with the exception of the calibration standards for peptides myr-PEPTIDE 106, PEPTIDE 106, PEPTIDE 106-NH2, PEPTIDE 106, and cyclic peptide, cyc-PEPTIDE 106, in human mucus, which were analyzed at concentrations of 0.100 μg/mL, 1.00 μg/mL, 10.0 μg/mL, and 75 μg/mL. Standards were prepared in 1% human BALF, plasma, or mucus in 50/50 water/acetonitrile mixture containing 0.2% formic acid. The instrument response values for each set of standards were fit using a 1/(concentration)^2 linear least-squares line. Sample concentrations were calculated using the slope and intercept of this line. Concentrations outside of the calibration range were determined by extrapolating the calibration curve.
Duplicate calibration standards were analyzed at a concentration of 50 μg/mL for each peptide. The instrument response values for each set of standards were fit through an intercept of 0 using an unweighted, linear least-squares line. Sample concentrations were calculated using the slope and intercept of this line.
For the analysis of peptide concentration in BALF samples, one 50 μg/mL calibration standard prepared in a mixture of BALF, water, acetonitrile, and formic acid was analyzed with each sample set.
(§4) Watson fits the log transformed data with a least-squares line to determine parameters such as Cmax (maximum concentration), intercept, rate constant, slope, and T1/2 (half-life). The resulting kinetic parameters were based on the linear fit, not the actual concentration values.
(§5) Time-zero calibration standards in solution were not included as part of the kinetic profiles.

[3] = Stability of test peptides in human CF mucus (LC/MS/MS, first order half-life); format: in vitro ADME; settings: cerebrospinal or other body fluid, pH 7, human CF mucus
Protocol: as §1
The frozen mucus (sputum) from a CF patient was thawed and mixed with 2 volumes of 75 mM sodium acetate buffer, pH 7 with the help of a glass tissue grinder, centrifuged at 10,000×g for 10 min at 4-8° C. The pellet was re-suspended in 1 volume of the acetate buffer and centrifuged. The two supernatants were combined and used as follows. The supernatant (450 μL) was spiked with 50 μL, of 0.5 mg/mL solution of the peptide in 75 mM sodium acetate buffer at pH 7.0 and processed and analyzed as described above.
as §2, §3, §4, §5

[4] = system: methacholine-induced mucin hypersecretion; test: Methacholine-induced mucin hypersecretion in ovalbumin-sensitized mouse model of asthma, BAL mucin ELISA (Balb/C mice); format: in vivo; settings: for Mucin Secretion % control: Table II, peptides at 100 μM, 50 μL intratracheal 15 min before methacholine; for Mucin Secretion % of control: Table IV
Outline: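 BP2 or Balb/C mice immunized s.c. twice weekly with 1 μg ovalbumin, aerosol ovalbumin challenge after 14 days, then aerosolized methacholine 72 h later. Anti-MUC5AC ELISA on cell-free BAL, minus non-immune antibody signal, normalized to Bradford protein; 6 mice per group.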

[5] = 1st experiment, read-out: Mucus t1/2 (1st exp.) (converted)
[6] = 2nd experiment, read-out: Mucus t1/2 (2nd exp.) (converted)

Substance | solubility [1] [mg/mL] | half-life [2] [min] | half-life [3, 5] [min] | half-life [3, 6] [min] | Mucin Secretion % control [4] [% control] | Mucin Secretion % of control ([4]; peptide 10 μM) | Mucin Secretion % of control ([4]; peptide 100 μM)
Ac-GAQFSKTAAK-OH [Ac-peptide 106] | > 100 | 113 | 33 | 28.2 | 21.5 | – | –
H-GAQFSKTAAK-OH [peptide 106, GAQFSKTAAK] | > 70 | 113 | 13.8 | 22.2 | 33.8 | 64* % of control | 40** % of control
